From the supplement of paper PMC5908809

Columns and labels:
[1] = system: normal primary NK cells, pool 3 (3 donors) (IL-2 2.5 ng/mL); experiment: drug sensitivity score (DSS) (DSS units); higher = more sensitive; extreme values may be limits of the assay; conditions: 72 h
[2] = system: KAI3 (IL-2 2.5 ng/mL); experiment: as above; conditions: 72 h
[3] = system: IMC-1 (IL-2 20 ng/mL); experiment: as above; conditions: 72 h
[4] = system: NK-YS (IL-2 2.5 ng/mL); experiment: as above; conditions: 72 h
[5] = system: NK-92 (IL-2 2.5 ng/mL); experiment: as above; conditions: 72 h
[6] = system: KHYG-1 (IL-2 2.5 ng/mL); experiment: as above; conditions: 72 h
[7] = system: SNK-6 (IL-2 2.5 ng/mL); experiment: as above; conditions: 72 h
[8] = system: normal primary NK cells, pool 1 (3 donors), resting (IL-2 0 ng/mL); experiment: as above; conditions: 72 h
[9] = system: NKL (IL-2 2.5 ng/mL); experiment: as above; conditions: 72 h
[10] = system: normal primary NK cells, pool 2 (3 donors) (IL-2 2.5 ng/mL); experiment: as above; conditions: 72 h
[11] = system: YT (IL-2 2.5 ng/mL); experiment: as above; conditions: 72 h
[12] = system: DERL-7 (IL-2 2.5 ng/mL); experiment: as above; conditions: 72 h
[13] = system: normal primary NK cells, pool 1 (3 donors) (IL-2 2.5 ng/mL); experiment: as above; conditions: 72 h
[14] = system: normal primary NK cells, pool 3 (3 donors) (IL-2 2.5 ng/mL); experiment: percent inhibition of viability; higher = more inhibition; conditions: 72 h
[15] = system: KAI3 (IL-2 2.5 ng/mL); experiment: as above; conditions: 72 h
[16] = system: IMC-1 (IL-2 20 ng/mL); experiment: as above; conditions: 72 h
[17] = system: NK-YS (IL-2 2.5 ng/mL); experiment: as above; conditions: 72 h
[18] = system: NK-92 (IL-2 2.5 ng/mL); experiment: as above; conditions: 72 h
[19] = system: KHYG-1 (IL-2 2.5 ng/mL); experiment: as above; conditions: 72 h
[20] = system: SNK-6 (IL-2 2.5 ng/mL); experiment: as above; conditions: 72 h
[21] = system: normal primary NK cells, pool 1 (3 donors), resting (IL-2 0 ng/mL); experiment: as above; conditions: 72 h
[22] = system: NKL (IL-2 2.5 ng/mL); experiment: as above; conditions: 72 h
[23] = system: normal primary NK cells, pool 2 (3 donors) (IL-2 2.5 ng/mL); experiment: as above; conditions: 72 h
[24] = system: YT (IL-2 2.5 ng/mL); experiment: as above; conditions: 72 h
[25] = system: DERL-7 (IL-2 2.5 ng/mL); experiment: as above; conditions: 72 h
[26] = system: normal primary NK cells, pool 1 (3 donors) (IL-2 2.5 ng/mL); experiment: as above; conditions: 72 h
[27] = system: normal NK cells expanded with K562-aAPC; experiment: drug sensitivity score (DSS) (DSS units); higher = more sensitive; extreme values may be limits of the assay; conditions: 72 h; IL-2 2.5 ng/mL
Experimental: (§1)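 Drug sensitivity and resistance testing on K562-aAPC-expanded normal NK cells: 5 concentrations (10-fold steps over a 10,000-fold range), 72 h at 37 °C, viability by CellTiter-Glo normalised to DMSO and benzethonium chloride controls; DSS from the fitted curve.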

[28] = system: normal NK cells expanded with K562-aAPC; experiment: percent inhibition of viability; higher = more inhibition; conditions: 72 h, IL-2 2.5 ng/mL
Experimental: as §1

C1=N/C2=N/c3ccc(OCCN4CCCC4)c(c3)COC/C=C/COCc3cccc(c3)C(=C1)N2 [Pacritinib] (max concentration tested 10000 nM)
Conditions | drug sensitivity score
[1] | 14.1
[2] | 14.2
[3] | 4.5
[4] | 11.7
[5] | 10.7
[6] | 12.8
[7] | 9.9
[8] | 12.6
[9] | 13.1
[10] | 16.2
[11] | 12.2
[12] | 14.1
[13] | 16.2
[27] | 12.8

percent inhibition of viability [%]
Conditions | 1 nM | 10 nM | 100 nM | 1000 nM | 10000 nM
[14] | -10.8 | -10.8 | 0.28 | 75.3 | 98.7
[15] | -4.38 | 0.97 | 8.91 | 68.1 | 102
[16] | -5.72 | -0.5 | -10.2 | -17.7 | 98.5
[17] | -5.53 | 0.76 | 3.37 | 50.8 | 102
[18] | -16.4 | -11.8 | 1.4 | 37.9 | 100
[19] | -2.5 | -2.14 | -0.78 | 61.7 | 102
[20] | -2.06 | 1.27 | -10.4 | 30.5 | 99.4
[21] | -8.26 | -5.07 | -1.15 | 60.6 | 99.4
[22] | -10.8 | -10.3 | -2.07 | 65.3 | 102
[23] | -8.58 | 0.56 | 8.47 | 82.3 | 95.9
[24] | -5.32 | -0.86 | -1.84 | 55.9 | 102
[25] | -0.5 | 3.08 | 13.1 | 64.9 | 99.9
[26] | 2.77 | -5.07 | 8.34 | 82.1 | 99.9
[28] | -2.28 | -6.13 | 9.28 | 58.8 | 99.4

COc1ccc(COc2cc3oc(=O)c4cc(C(C)O)ccc4c3cc2OC)cc1 (stereo not drawn) [Palomid-529] (max concentration tested 10000 nM)
Conditions | drug sensitivity score
[1] | 0
[2] | 3.78
[3] | 0
[4] | 3.86
[5] | 8.66
[6] | 4.78
[7] | 0
[8] | 0
[9] | 5.94
[10] | 0
[11] | 4.52
[12] | 0.82
[13] | 0
[27] | 0

percent inhibition of viability [%]
Conditions | 1 nM | 10 nM | 100 nM | 1000 nM | 10000 nM
[14] | -14.4 | -4.43 | 2.41 | -2.08 | 5.65
[15] | -1.34 | 0.71 | -2.91 | 8.03 | 46.9
[16] | -5.32 | -4.51 | 2.75 | 4.92 | 7.18
[17] | -3.04 | -9.05 | -5.45 | 9.61 | 44.8
[18] | -6.63 | -14.2 | 2.8 | 30.5 | 83.4
[19] | 1.15 | -4.29 | -3.13 | 9.18 | 59.6
[20] | -15.9 | -23.8 | -10.8 | 8.45 | 5.08
[21] | -31.1 | -17.8 | -2.41 | -12.2 | 10.7
[22] | -6.62 | -2.59 | 6.05 | 30.5 | 33.3
[23] | -5.4 | -5.23 | -8.91 | -7.52 | 4.06
[24] | -2.49 | -9.33 | -3.82 | 12.3 | 49.4
[25] | -6.43 | -4.11 | -0.12 | 1.25 | 21.1
[26] | -7.97 | -4.09 | 6.27 | 8.93 | 4.45
[28] | -9.29 | -6.42 | -4.58 | 4.67 | 5.9
